This is an account of results in paper PMC8143291, “Cytotoxicity and Microbicidal Activity of Commonly Used Organic Solvents: A Comparative Study and Application to a Standardized Extract from Vaccinium macrocarpon” (Toxics, 2021).

Bounds are passed on as bounds.

Test in all cases: Broth microdilution MIC/MBC
For assay [1], the system named is S. pyogenes SAIMC 10535. The format is cell-based, Streptococcus pyogenes. The note with it: 24 h exposure; v/v; n = 3. The source says:
(§1) The bacterial strains used for AST of the solvents included: Staphylococcus aureus (ATCC 29213), Staphylococcus aureus—MRSA (NBIMCC 8327—resistant to methicillin and oxacillin, National Bulgarian Collection for Industrial Microorganisms and Cell Cultures, Sofia, Bulgaria), Streptococcus pyogenes (SAIMC 10535, Collection of the Stephan Angeloff Institute of Microbiology, Sofia, Bulgaria), Enterococcus faecalis (ATCC 29212), Escherichia coli (ATCC 35218), Pseudomonas aeruginosa (ATCC 27853), and Yersinia enterocolitica (IP864 O:3, Collection of Institut Pasteur, Paris, France). The selected strains are the most often investigated ones in the AST research studies in correspondence with the standard ISO 20776-1 Part 1: Reference method for testing the in vitro activity of antimicrobial agents against rapidly growing aerobic bacteria involved in infectious diseases. The antimycotic activity was tested on Candida albicans (CBS 562, Utrecht, The Netherlands). The strains S. aureus, MRSA, E. coli and E. faecalis were grown on Mueller–Hinton broth/agar (MHB/MHA); S. pyogenes, P. aeruginosa, Y. enterocolitica and C. albicans were grown on brain heart infusion (BHI) broth/agar; E. coli was also grown on Luria–Bertani broth/agar (LBB/LBA).
(§2) The minimum inhibitory concentration (MIC) for each solvent was estimated by the broth microdilution method (BMD) in 96-well microplates, following ISO 20776/1-2006 [3] and CLSI protocols. Briefly, a standardized bacterial inoculum was prepared from each bacterial species by suspending 3–4 colonies from a pure culture into 4 mL sterile saline. The turbidity of the inocula was adjusted to McFarland 0.5 (1.0 × 10^8 CFU/mL, λ = 600 nm), and 50 µL were resuspended in 10 mL of the appropriate culture medium for each strain. The bacterial inocula were added to microtiter trays containing equivalent volumes of medium loaded with the relevant solvent in concentrations varying from 0.025 to 25% volume fraction. The final volume of each sample was 100 µL/well. The plates were incubated at 37 °C for 24 h. The pure culture medium served as a negative control. Every MIC was evaluated visually as the lowest concentration without visible growth. […] MBC was defined as the lowest compound’s concentration reducing the colony growth of the initial bacterial inoculum by ≥ 99.9%.

Assay [2] has as its system S. Aureus MRSA NBIMCC 8327. The format is cell-based, Staphylococcus aureus. The note with it: 24 h exposure; v/v; n = 3.
From the text: as §1, §2

The subject of assay [3] is S. Aureus ATCC 29213. The format is cell-based, Staphylococcus aureus. The note with it: 24 h exposure; v/v; n = 3.
From the text: as §1, §2

Assay [4] relates to Candida Albicans SAIMC 562. The format is cell-based. To be noted: 24 h exposure; v/v; n = 3.
From the text: as §1, with “The antimycotic activity was tested on Candida albicans (CBS 562, Utrecht, The Netherlands).” left out
as §2

The subject of assay [5] is Y. enterocolitica IP 864 O: 3. The format is cell-based, Yersinia enterocolitica. The note with it: 24 h exposure; v/v; n = 3.
From the text: as §1, §2

The test system of assay [6] is E. faecalis ATCC 29212. The format is cell-based, Enterococcus faecalis. To be noted: 24 h exposure; v/v; n = 3.
From the text: as §1, §2

For assay [7], the system named is E. coli ATCC 35218. The format is cell-based, Escherichia coli. To be noted: 24 h exposure, v/v, n = 3.
From the text: as §1, §2

As to “polyethylene glycol of average molecular weight 400 [PEG-400]”, the MBC in assay [1] was >25%; in assay [2] it was 25%; in assay [3] it was >25%; in assay [4], >25%; in assay [5], 12.5%; in assay [6], >25%. Moreover, the MBC in assay [7] (in LBB) and in assay [7] (in MHB) was >25% in each case. In addition, the MIC in assay [1] was 25%; in assay [2], 25%; in assay [3], >25%; in assay [4], >25%; in assay [5], 12.5%; in assay [6], 25%. The MIC is on record as 25% in assay [7] (in LBB) and >25% in assay [7] (in MHB).
Turning to `CCO` [EtOH, ethanol], the MBC in assay [1], in assay [2], in assay [3], in assay [4], in assay [5] and in assay [6] was >25% throughout. Moreover, the MBC in assay [7] (in LBB) and in assay [7] (in MHB) was >25% throughout. Further, the MIC in assay [1], in assay [2], in assay [3], in assay [4], in assay [5] and in assay [6] was >25% each time. The MIC in assay [7] (in LBB) and in assay [7] (in MHB) was >25% in each case.
`C[S+](C)[O-]` [DMSO, dimethyl sulfoxide]: the MBC is >25% in assay [1]; >25% in assay [2]; >25% in assay [3]; 6.25% in assay [4]; 6.25% in assay [5]; >25% in assay [6]. Moreover, the MBC in assay [7] (in LBB) and in assay [7] (in MHB) was >25% throughout. In addition, the MIC in assay [1] was determined as 12.5%; in assay [2], 25%; in assay [3], 25%; in assay [4], 6.25%; in assay [5], 3.125%; in assay [6], 12.5%. The MIC in assay [7] (in LBB) and in assay [7] (in MHB) was 12.5% throughout.
